Measured values taken from patent publication US11000033B2, “Ketone or oxime compound, and herbicide” (NISSAN CHEMICAL CORPORATION, priority 2014, dated 2021).

Tests used:
Assay type in all cases: in vivo
[1] = tested on: rice; experiment: Test Example 4: effect on crop by soil treatment (symbol b); details: application herbicide amount 320 g/ha
Summary of the method: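 Steps: fill box with sterilized diluvial soil; sow seed spot-like; cover with ~1.5 cm soil; grow in greenhouse (25° C. to 30° C.).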

[2] = tested on: Digitaria ciliaris; experiment: Test Example 4: herbicidal effect by soil treatment (symbol F); details: application herbicide amount 320 g/ha
Summary of the method: (§1)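 Seeds were sown in sterilized diluvial soil, covered with about 1.5 cm of soil, and the soil surface was sprayed with a water-diluted emulsion of the compound at a predetermined rate. Plants grew in a greenhouse at 25° C. to 30° C.; effects were scored visually 3 weeks after application.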

[3] = tested on: beet; experiment: Test Example 5: effect on crop by foliage application, plastic box (symbol f); details: 320 g/ha, 3 weeks after application
Summary of the method: (§2)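 Greenhouse test at 25° C. to 30° C. Seeds of crops and weeds were spot-sown in boxes of sterilized diluvial soil under roughly 1.5 cm soil cover, then grown for foliage treatment.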

[4] = tested on: Abutilon theophrasti; experiment: Test Example 5: herbicidal effect by foliage application, plastic box (symbol M); details: 320 g/ha, 3 weeks after application
Summary of the method: (§3)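 After sowing into sterilized diluvial soil and growing two weeks under glass at 25° C. to 30° C., seedlings receive a uniform foliar spray of diluted emulsion. Damage is judged visually three weeks on.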

[5] = tested on: Avena fatua; experiment: Test Example 4: herbicidal effect by soil treatment (symbol I); details: application herbicide amount 320 g/ha
Summary of the method: as §1

[6] = tested on: Abutilon theophrasti; experiment: Test Example 4: herbicidal effect by soil treatment (symbol M); details: application herbicide amount 320 g/ha
Summary of the method: as §1

[7] = tested on: rapeseed; experiment: Test Example 5: effect on crop by foliage application, plastic box (symbol g); details: 320 g/ha, 3 weeks after application
Summary of the method: as §2

[8] = tested on: Galium spurium; experiment: Test Example 4: herbicidal effect by soil treatment (symbol Q); details: application herbicide amount 320 g/ha
Summary of the method: as §1

[9] = tested on: Alopecurus myosuroides; experiment: Test Example 4: herbicidal effect by soil treatment (symbol J); details: application herbicide amount 320 g/ha
Summary of the method: as §1

[10] = tested on: Echinochloa crus-galli var. crus-galli; experiment: Test Example 5: herbicidal effect by foliage application, plastic box (symbol H); details: 320 g/ha, 3 weeks after application
Summary of the method: as §3

[11] = tested on: Amaranthus retroflexus; experiment: Test Example 5: herbicidal effect by foliage application, plastic box (symbol N); details: 320 g/ha, 3 weeks after application
Summary of the method: as §3

[12] = tested on: Echinochloa oryzacola Vasing.; experiment: Test Example 1: herbicidal activity, application before weed generation in submerged conditions (symbol A); details: application herbicide amount 320 g/ha
Summary of the method: (§4)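 Paddy pre-emergence test. Formulated emulsion, water-diluted to a predetermined rate, is applied to floodwater on sowing day; rice transplanted at 2.5 leaves. Effect read at 3 weeks on a 0–5 herbicidal-ratio scale.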

[13] = tested on: Monochoria vaginalis; experiment: Test Example 2: herbicidal activity, application during weed generation in submerged conditions (symbol C); details: Table 23; application herbicide amount 320 g/ha; grade 0-5 by criteria of Test Example 1
Summary of the method: (§5)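 Scoring of herbicidal effect took place 3 weeks after treatment, using the criteria of the earlier test. Treatment was water-surface application of diluted emulsifiable compound at a set dose. Plants were at one- to two-leaf stage in submerged alluvial soil (4 cm depth), greenhouse 25-30° C.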

[14] = tested on: Echinochloa oryzacola Vasing.; experiment: Test Example 2: herbicidal activity, application during weed generation in submerged conditions (symbol A); details: Table 23; application herbicide amount 320 g/ha; grade 0-5 by criteria of Test Example 1
Summary of the method: as §5

[15] = tested on: Scirpus juncoides; experiment: Test Example 2: herbicidal activity, application during weed generation in submerged conditions (symbol B); details: Table 23; application herbicide amount 320 g/ha; grade 0-5 by criteria of Test Example 1
Summary of the method: as §5

[16] = tested on: Monochoria vaginalis; experiment: Test Example 1: herbicidal activity, application before weed generation in submerged conditions (symbol C); details: application herbicide amount 320 g/ha
Summary of the method: as §4

Structure (SMILES)	Herbicidal effect grade, A: Echinochloa oryzacola Vasing. [12]	b (directly sowed rice plant) effect on crop grade [1]	F (Digitaria ciliaris) herbicidal effect grade [2]	f: beet, effect on crop grade [3]	M: Abutilon theophrasti, herbicidal effect grade [4]	I (Avena fatua) herbicidal effect grade [5]	M (Abutilon theophrasti) herbicidal effect grade [6]	g: rapeseed, effect on crop grade [7]	Herbicidal effect grade, A: Echinochloa oryzacola Vasing. [14]	Q (Galium spurium) herbicidal effect grade [8]	Herbicidal effect grade, B: Scirpus juncoides [15]	J (Alopecurus myosuroides) herbicidal effect grade [9]	H: Echinochloa crus-galli var. crus-galli, herbicidal effect grade [10]	N: Amaranthus retroflexus, herbicidal effect grade [11]	other results
CC(=O)CC1CC(O)=C(c2c(C)cc(Oc3ccccc3)cc2C)C1=O (centres unmarked) [7-014]	–	–	–	–	–	–	–	–	–	–	–	–	–	–	Effect on crop grade, b: directly sowed rice plant [1]: 4 (Herbicidal ratio of 70% or higher and lower than 90%); Herbicidal effect grade, F: Digitaria ciliaris [2]: 3 (Herbicidal ratio of 40% or higher and lower than 70%); f: beet, effect on crop (criteria of Test Example 1) [3]: 0 (Herbicidal ratio of 5% or lower (almost no effect)); M: Abutilon theophrasti, herbicidal effect (criteria of Test Example 1) [4]: 0 (Herbicidal ratio of 5% or lower (almost no effect)); Herbicidal effect grade, I: Avena fatua [5]: 0 (Herbicidal ratio of 5% or lower (almost no effect)); Herbicidal effect grade, M: Abutilon theophrasti [6]: 0 (Herbicidal ratio of 5% or lower (almost no effect)); g: rapeseed, effect on crop (criteria of Test Example 1) [7]: 1 (Herbicidal ratio of 5% or higher and lower than 20%); Herbicidal effect grade, Q: Galium spurium [8]: 0 (Herbicidal ratio of 5% or lower (almost no effect)); Herbicidal effect grade, J: Alopecurus myosuroides [9]: 0 (Herbicidal ratio of 5% or lower (almost no effect)); H: Echinochloa crus-galli var. crus-galli, herbicidal effect (criteria of Test Example 1) [10]: 5 (Herbicidal ratio of 90% or more (almost completely withered)); N: Amaranthus retroflexus, herbicidal effect (criteria of Test Example 1) [11]: 0 (Herbicidal ratio of 5% or lower (almost no effect))
CON=C(C)CC1CC(OC(=O)COc2ccc(C)cc2)=C(c2c(C)cc(C)cc2C)C1=O (centres unmarked) [1-072]	5 (Herbicidal ratio of 90% or more (almost completely withered))	5 (Herbicidal ratio of 90% or more (almost completely withered))	5 (Herbicidal ratio of 90% or more (almost completely withered))	1 (Herbicidal ratio of 5% or higher and lower than 20%)	5 (Herbicidal ratio of 90% or more (almost completely withered))	4 (Herbicidal ratio of 70% or higher and lower than 90%)	4 (Herbicidal ratio of 70% or higher and lower than 90%)	4 (Herbicidal ratio of 70% or higher and lower than 90%)	5 (Herbicidal ratio of 90% or more (almost completely withered))	0 (Herbicidal ratio of 5% or lower (almost no effect))	3 (Herbicidal ratio of 40% or higher and lower than 70%)	5 (Herbicidal ratio of 90% or more (almost completely withered))	5 (Herbicidal ratio of 90% or more (almost completely withered))	5 (Herbicidal ratio of 90% or more (almost completely withered))	Herbicidal effect grade, C: Monochoria vaginalis [13]: 0 (Herbicidal ratio of 5% or lower (almost no effect))
CON=C(C)CC1CC(OC(=O)COc2ccccc2[N+](=O)[O-])=C(c2c(C)cc(C)cc2C)C1=O (centres unmarked) [1-071]	5 (Herbicidal ratio of 90% or more (almost completely withered))	5 (Herbicidal ratio of 90% or more (almost completely withered))	5 (Herbicidal ratio of 90% or more (almost completely withered))	0 (Herbicidal ratio of 5% or lower (almost no effect))	4 (Herbicidal ratio of 70% or higher and lower than 90%)	4 (Herbicidal ratio of 70% or higher and lower than 90%)	4 (Herbicidal ratio of 70% or higher and lower than 90%)	4 (Herbicidal ratio of 70% or higher and lower than 90%)	5 (Herbicidal ratio of 90% or more (almost completely withered))	0 (Herbicidal ratio of 5% or lower (almost no effect))	3 (Herbicidal ratio of 40% or higher and lower than 70%)	5 (Herbicidal ratio of 90% or more (almost completely withered))	5 (Herbicidal ratio of 90% or more (almost completely withered))	0 (Herbicidal ratio of 5% or lower (almost no effect))	Herbicidal effect grade, C: Monochoria vaginalis [16]: 0 (Herbicidal ratio of 5% or lower (almost no effect))
